These are literature values, as cited in US8440844B2, “Process for the preparation of β-amino alcohol” (Council of Scientific & Industrial Research, priority 2011, dated 2013).

Broadly, the EC50 is the concentration that produces a half-maximal response.

The target of series [1] is γ-secretase. To be noted: Notch-1-sparing γ-secretase inhibitor; background statement, no method given.
For series [2], the system named is β-amyloid (Aβ) production. Particulars: background statement.

`CCC(CC)[C@@H](CO)NS(=O)(=O)c1ccc(Cl)s1` [(S)—N-(5-chlorothiophene-2-sulfonyl)-β,β-diethylalaninol]: the concentration for a half-maximal effect (EC50) in series [1] was 28 nM. For the same compound, in series [2], the “reduction of Aβ production in vivo” value is reported as “effective in reduction of Aβ production in vivo”.
